Laboratory results reported in US10993955B2, “Medicament for use in treating diabetes” (Shandong Zhonghai Pharmaceutical CO. LTD, priority 2016, dated 2021).

Test system: diabetic patients
Test: Therapeutic effect in diabetic patients (blood glucose, urine glucose), 3 months treatment
Type: in vivo, human
Source text: The medicament hereof is used to compare the therapeutic effects in diabetic patients, and the details are as follows:
The applicant has divided 100 diabetic patients into treatment group. Among these patients, 6 are aged 16 to 30 years old, 14 are 31 to 45 years old, 28 are 46 to 60 years old, and 52 are 61 to 75 years old.
During the treatment, the patients in the treatment group discontinue the administration of any other medicaments, and only take the medicament described in Embodiment 3 hereof, once in the morning and evening, 2 g each time; the patients in the control group take D-860 Rastinon according to the package insert, and the patients in treatment group and the control group of the invention were treated and observed for 3 months, and the results are as follows: […]

[1] = diabetic patients aged 16-30, after 3 months treatment
[2] = diabetic patients aged 31-45, after 3 months treatment
[3] = diabetic patients aged 46-60, after 3 months treatment
[4] = diabetic patients aged 61-75, after 3 months treatment

## CCCCNC(=O)NS(=O)(=O)c1ccc(C)cc1 [D-860 Rastinon]
[1]
  Blood sugar: 6.2 mmol/L
  Glucose in urine: 1.0 mmol/L
[2]
  Blood sugar: 6.5 to 6.7 mmol/L
  Glucose in urine: 28.6 to 32.2 mmol/L
[3]
  Blood sugar: 7.3 to 7.6 mmol/L
  Glucose in urine: 31 to 35 mmol/L
[4]
  Blood sugar: 9.0 to 9.2 mmol/L
  Glucose in urine: 35 to 58 mmol/L
